# Legend:
# CaERG11 GRACE strain = assay: GRACE strain drug resistance/sensitivity by increasing and decreasing target expression; type: cell-based, Candida albicans
# Text: (§1) Moreover, these experiments clearly indicate how distinct levels of target gene products synthesized within the pathogen could be directly applied in whole cell assay based drug screens to identify novel antifungal compounds against those novel drug targets validated using the GRACE method.
# [1] = system: bar-coded strains bearing heterozygous mutations in HIS3, TUB 1, ALG7, and ERG 11; conditions: mixed population; HIS3, TUB 1, ALG7, ERG 11 respectively; cited from earlier work
# [2] = system: CaHIS3 (imidazoleglycerol phosphate dehydratase) wild type, heterozygote and GRACE strains; assay: Target level variation whole cell assay: sensitivity of CaHIS3 strains towards 3-aminotriazole; type: cell-based, Candida albicans; conditions: for sensitivity of CaHIS3 GRACE strain minimally expressing CaHIS3 (partial repression, threshold tetracycline): FIG. 6C/6D
# Text: The data derived from these experiments clearly indicate that distinct levels of target gene products synthesized within the pathogen could be directly applied in whole cell assay based drug screens to identify novel antifungal compounds active against novel drug targets validated using the GRACE method.
# 3-AT is a competitive inhibitor of the enzyme encoded by CaHIS3, imidazoleglycerol phosphate dehydratase, and together serve as a model for a drug and drug target respectively. […] The phenotype observed is consistent with that expected in light of the predicted 7.5 fold overexpression of CaHIS3 determined by Northern bolt analysis (see FIG. 5). […] A third CaHIS3 expression level evaluated for differential sensitivity to 3-AT was produced by partial repression of the GRACE CaHIS3 strain using a threshold concentration of tetracycline 0.1% […].
# as §1
# CaALG7 GRACE strain = assay: GRACE strain drug resistance/sensitivity by increasing and decreasing target expression; type: cell-based, Candida albicans
# Text: as §1
# C. albicans = assay: Sensitivity of C. albicans to selection antibiotics (dominant selectable markers); type: cell-based, Candida albicans
# Text: Several art-known methods are available to create a heterozygote mutant. In less preferred embodiments, auxotrophic markers, such as but not limited to CaURA3, CaHIS3, CaLEU2, or CaTRP1, could be used for gene disruption if desired. However, the preferred method of heterozygote construction in diploid fungi employs a genetically modified dominant selectable marker. C. albicans is sensitive to the nucleoside-like antibiotic streptothricin at a concentration of 200 micrograms per milliliter. The presence of the Escherichia coli SAT1 gene within C. albicans allows acetylation of the drug rendering it nontoxic and permitting the strain to grow in the presence of streptothricin at a concentration of 200 micrograms per milliliter. Expression of the SAT1 gene in C. albicans is made possible by engineering the gene so that its DNA sequence is altered to conform to the genetic code of this organism and by providing a CaACT1 promoter (Morschhauser et al. (1998) Mol. Gen. Genet. 257:412-420) and a CaPCK1 terminator sequence (Leuker et al. (1997) Gene 192: 235-40). This genetically modified marker is referred to as CaSAT1 which is the subject of a copending United States nonprovisional application, published under the publication no. US20010031724, which is incorporated herein by reference in its entirety. […]
# [3] = inhibitory 3-AT concentration, FIG. 6A
# [4] = intermediate 3-AT concentration, FIG. 6B
compound,measurement,setting,value
OC(Cn1cncn1)(Cn1cncn1)c1ccc(F)cc1F [fluconazole],GRACE strain-specific phenotypes on increasing and decreasing expression of the known drug target,CaERG11 GRACE strain,drug resistance and sensitivity phenotypes
same,sensitivity of the bar-coded strain heterozygous for the respective drug target versus other heterozygote bar-coded strains,[1],significantly greater sensitivity
"Nc1nc[nH]n1 [3-AT, 3-aminotriazole]",sensitivity of the bar-coded strain heterozygous for the respective drug target versus other heterozygote bar-coded strains,[1],significantly greater sensitivity
same,growth of CaHIS3 heterozygote strain,[2]; [3],completely inhibit growth
same,growth of wild type CaHIS3 strain,[2]; [3],completely inhibit growth
same,phenotype of CaHIS3 GRACE strain overexpressing CaHIS3 (constitutive tetracycline promoter expression),[2]; [3],resistance
same,effect on tetracycline promoter-based overproducing CaHIS3 strain,[2]; [4],unable to effect
same,effect on wild type CaHIS3 strain,[2]; [4],unable to effect
same,sensitivity of heterozygous CaHIS3 strain (haploinsufficient phenotype),[2]; [4],enhanced sensitivity
same,"sensitivity of CaHIS3 GRACE strain minimally expressing CaHIS3 (partial repression, threshold tetracycline)",[2]; intermediate 3-AT concentration,enhanced drug sensitivity relative the heterozygous CaHIS3 strain
same,"sensitivity of CaHIS3 GRACE strain minimally expressing CaHIS3 (partial repression, threshold tetracycline)","[2]; intermediate 3-AT concentration, listed as 3-aminotriazole",hypersensitivity
tunicamycin,GRACE strain-specific phenotypes on increasing and decreasing expression of the known drug target,CaALG7 GRACE strain,drug resistance and sensitivity phenotypes
same,sensitivity of the bar-coded strain heterozygous for the respective drug target versus other heterozygote bar-coded strains,[1],significantly greater sensitivity
CN(CC[C@H](N)CC(=O)N[C@H]1C=C[C@H](n2ccc(N)nc2=O)O[C@@H]1C(=O)O)C(=N)N [blasticidin],sensitivity of C. albicans,C. albicans; concentration not given,sensitive
streptothricin,sensitivity of C. albicans,C. albicans; concentration of 200 micrograms per milliliter,sensitive
CCCCNC(=O)n1c(NC(=O)OC)nc2ccccc21 [benomyl],sensitivity of the bar-coded strain heterozygous for the respective drug target versus other heterozygote bar-coded strains,[1],significantly greater sensitivity
